Measurements as given in patent publication US4092415A, “Microorganism combatting quinoxaline-di-N-oxide carboxamides” (Ciba-Geigy Corporation, priority 1976, dated 1978).
Where two headings read alike, the source gives them in different places.

Tests used:
Format in all cases: in vivo
Staph. aureus Smith = assay: Intraperitoneally infected white mice, Staph. aureus Smith; settings: Staphylococcus aureus, with infection and 3 hours later, read-out: average effective dose/confidence interval
Description: (§1) In tests carried out on white mice, the intraperitoneally infected animals are treated subcutaneously and perorally as follows:
(§2) The administration is effected in doses of 1 mg, 3 mg, 10 mg, 30 mg, 100 mg or 300 mg of active substance per kg of body weight initially simultaneously with the infection and a second time 3 hours later.

Strept. pyog. Aronson = assay: Intraperitoneally infected white mice, Strept. pyog. Aronson; settings: Mus musculus; for ED50: with infection and 3 hours later, read-out: average effective dose/confidence interval; for ED20: value marked (ED 20)
Description: as §1, §2

E. coli 205 = assay: Intraperitoneally infected white mice, E. coli 205; settings: Escherichia coli, with infection and 3 hours later, read-out: average effective dose/confidence interval
Description: as §1, §2

Salm. ty.-m = assay: Intraperitoneally infected white mice, Salm. ty.-m; settings: Mus musculus, with infection and 3 hours later, read-out: average effective dose/confidence interval
Description: as §1, §2

Past. mult. = assay: Intraperitoneally infected white mice, Past. mult.; settings: Mus musculus, with infection and 3 hours later, read-out: average effective dose/confidence interval
Description: as §1, §2

Pseud. aerug. = assay: Intraperitoneally infected white mice, Pseud. aerug.; settings: Mus musculus, with infection and 3 hours later, read-out: average effective dose/confidence interval
Description: as §1, §2

[1] = test system: simultaneously infected hens; assay: Single peroral administration to simultaneously infected hens; settings: Gallus gallus, po, single peroral administration by probang, simultaneous with infection
Source text: Single peroral administration by means of a probang to
simultaneously infected hens in mg of active substance

piglets = assay: Demonstration of growth: piglets fed 28 days with medicated feed; settings: 50 ppm in feed
Source text: A group of eight piglets (four .male. and four .female.) was fed for 28 days with a normal feed containing 17.6% of raw protein and 3.4% of crude fibres and to which 50 ppm of 1,4-dioxido-3-methyl-quinoxaline(2)-N-(2'-cyanoethyl)-carboxamide (Example 1) had been added. The average initial weight of the individual test animals was approx. 9 kg at the start of the test. At the conclusion of the test the animals were weighed individually and the feed consumption determined in groups. For control purposes, a parallel test following the same procedure was carried out using the same feed without the addition of active substance.

| SMILES | ED50 (Staph. aureus Smith; 2 × po.) [mg/kg] | ED50 (Staph. aureus Smith; 2 × sc.) [mg/kg] | ED50 (Strept. pyog. Aronson; 2 × po.) [mg/kg] | ED20 (Strept. pyog. Aronson; 2 × sc.) [mg/kg] | ED50 (E. coli 205; 2 × po.) [mg/kg] | ED50 (E. coli 205; 2 × sc.) [mg/kg] | ED50 (Salm. ty.-m; 2 × po.) [mg/kg] | ED50 (Salm. ty.-m; 2 × sc.) [mg/kg] | ED50 (Past. mult.; 2 × po.) [mg/kg] | ED50 (Past. mult.; 2 × sc.) [mg/kg] | ED50 (Pseud. aerug.; 2 × po.) [mg/kg] | ED50 (Pseud. aerug.; 2 × sc.) [mg/kg] | ED50 [1] [mg/kg] | ED20 (Strept. pyog. Aronson; 2 × po.) [mg/kg] | ED50 (Strept. pyog. Aronson; 2 × sc.) [mg/kg] | Feed consumption index abs. (piglets; average values, control 1.90) | Daily growth rate abs. (piglets; average values, control 231 g) [g] | Daily growth rate rel. (piglets; control 100%) [%] | Feed consumption index rel. (piglets; control 100%) |
| --- | --- | --- | --- | --- | --- | --- | --- | --- | --- | --- | --- | --- | --- | --- | --- | --- | --- | --- | --- |
| Cc1c(C(=O)NCC#N)[n+]([O-])c2ccccc2[n+]1[O-] [A, 1,4-dioxido-3-methyl-quinoxaline(2)-N-(cyanomethyl)-carboxamide] | 12 | 10 | 265 | 205 | 3.5 | 3 | 4.2 | 3.9 | 3.4 | 3 | 75 | 120 | 2 |  |  |  |  |  |  |
| Cc1c(C(=O)NC(C)(C)C#N)[n+]([O-])c2ccccc2[n+]1[O-] [B] | 18 | 16 |  | 140 | 18 | 11 | 25 | 11 | 5.1 | 3.2 | > 300 | > 100 |  | 170 |  |  |  |  |  |
| Cc1c(C(=O)NCCC#N)[n+]([O-])c2ccccc2[n+]1[O-] [C, 1,4-Dioxido-3-methyl-quinoxaline(2)-N-(2'-cyanoethyl)-carboxamide] | 27 | 18 | 275 |  | 6.6 | 5.5 | 11 | 10 | 3.9 | 5.5 | 235 | 105 |  |  | 400 | 1.69 kg of feed consumed per kg of | 305 | 132 | 88,9% |
| Cc1c(C(=O)NCCO)[n+]([O-])c2ccccc2[n+]1[O-] [D, reference compound] | 60 | 40 | 410 |  | 10 | 9 | 13 | 10 | 15 | 14 | 490 | 210 | 5.3 |  | 425 |  |  |  |  |
| COC(=O)N/N=C/c1c[n+]([O-])c2ccccc2[n+]1[O-] [E, reference compound] | 35 | 2500 |  |  | 30 | 300 | 25 | 140 | ~30 | ~100 |  |  | 9 |  |  |  |  |  |  |
